Source: patent publication US20100273189A1, “NON SEPARATION ASSAYS WITH SELECTIVE SIGNAL INHIBITORS” (BECKMAN COULTER, INC., priority 2009, published 2010)
Read-outs that look alike come from different tables or passages of the source.

Experiments:
GM-CSF = test system: GM-CSF
Method: The term “GM-CSF” refers to granulocyte macrophage […], a protein necessary for the survival, proliferation and differentiation of hematopoietic progenitor cells, having human gene map locus 5q31.1. A variety of antibodies to GM-CSF are commercially available.
Heterogeneous phase assays directed to GM-CSF were conducted using a LodeStars PMP labeled with AK4 and biotin/streptavidin (AK-PMP-SA) as described in Example 3, an antibody-biotin conjugate and an antibody-HRP conjugate binding to GM-CSF. The antibody-HRP conjugate, (antiGM-CSF-HRP) was purchased from Antigenix.
The antibody-biotin (antiGM-CSF-biotin) conjugate was synthesized by adding a 25-fold molar excess (9.28 μg) of sulfo NHS-biotin (Pierce), dissolved in DMF (1 mg/mL), to 0.1 mg of antibody (Antigenix) in 0.1 mL of 0.1 M sodium borate pH 8.25. After a 60 min incubation at ambient temperature, the reaction was left to incubate overnight at 4° C. The biotinylated antibody was purified over a Sephadex G-25 column (GE Healthcare), equilibrated in PBS, pH 7.4, following the manufacturers instructions.
In order to conduct the heterogeneous assay, 30 μL of an antiGM-CSF-Biotin conjugate solution (0.75 μg/mL, 22.5 ng), 30 μL of calibrator solution having GM-CSF in the range 0-30,000 pg/mL, 30 μL of antiGM-CSF-HRP conjugate (2.25 μg/mL, 67 ng), and 30 μL of AK-streptavidin magnetic particle solution (10 μg of particles) were pipetted into the wells of a white microtiter plate. The plate was incubated for 60 minutes at room temperature. 5 μL of a 2-aminophenol solution (11 mM, 55 nmoles) was added as SSIA. The plate was placed into an injection plate luminometer. 100 μL of trigger solution A was added by the luminometer and the chemiluminescent signal was read for 5 seconds.

biotinylated HRP = target: T1, biotinylated HRP (Armoracia rusticana, UniProt P00433); assay: Model system for selection of SSIA (M280 btn-BSA-AK1-streptavidin particles + Btn-HRP:HRP); assay type: biochemical
T1 construct: purchased Roche Diagnostics, Indianapolis, Ind., USA
T1 sequence (P00433 31-338 limits assumed): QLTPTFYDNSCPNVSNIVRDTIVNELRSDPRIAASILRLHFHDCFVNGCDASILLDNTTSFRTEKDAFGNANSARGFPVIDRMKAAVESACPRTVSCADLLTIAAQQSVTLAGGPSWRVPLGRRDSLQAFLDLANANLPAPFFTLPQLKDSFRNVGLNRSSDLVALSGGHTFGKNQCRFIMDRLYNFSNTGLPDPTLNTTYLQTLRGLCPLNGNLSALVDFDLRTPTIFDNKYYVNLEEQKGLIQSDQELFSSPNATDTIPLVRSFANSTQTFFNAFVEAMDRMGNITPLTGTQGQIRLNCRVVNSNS

[1] = 2-aminophenol as SSIA, GM-CSF 0 pg/mL
[2] = 2-aminophenol as SSIA, GM-CSF 1 pg/mL
[3] = 2-aminophenol as SSIA, GM-CSF 3 pg/mL
[4] = 2-aminophenol as SSIA, GM-CSF 5 pg/mL
[5] = 2-aminophenol as SSIA, GM-CSF 10 pg/mL
[6] = 2-aminophenol as SSIA, GM-CSF 100 pg/mL
[7] = 2-aminophenol as SSIA, GM-CSF 1000 pg/mL
[8] = 2-aminophenol as SSIA, GM-CSF 10000 pg/mL

**Q.** How did the “Mean RLU” value (GM-CSF; 2-aminophenol 55 nmoles as SSIA, GM-CSF 30000 pg/mL) turn out when `Nc1ccccc1O` [2-aminophenol] was run?
**A.** 2180 RLU

**Q.** What about the “Mean RLU” value (GM-CSF; [1]) of the same compound?
**A.** 0.7805 RLU

**Q.** And the S/S0 (GM-CSF; [1])?
**A.** 1.000

**Q.** What about the “Mean RLU” value (GM-CSF; [2]) of the same compound?
**A.** 0.8045 RLU

**Q.** And the S/S0 (GM-CSF; [2])?
**A.** 1.030

**Q.** And the “Mean RLU” value (GM-CSF; [3])?
**A.** 0.8865 RLU

**Q.** And the S/S0 (GM-CSF; [3])?
**A.** 1.135

**Q.** What about the “Mean RLU” value (GM-CSF; [4]) of the same compound?
**A.** 0.9205 RLU

**Q.** What about the S/S0 (GM-CSF; [4]) of the same compound?
**A.** 1.179

**Q.** And the “Mean RLU” value (GM-CSF; [5])?
**A.** 1.284 RLU

**Q.** What about the S/S0 (GM-CSF; [5]) of the same compound?
**A.** 1.645

**Q.** What about the “Mean RLU” value (GM-CSF; [6]) of the same compound?
**A.** 5.2805 RLU

**Q.** And the S/S0 (GM-CSF; [6])?
**A.** 6.765

**Q.** And the “Mean RLU” value (GM-CSF; [7])?
**A.** 47.89 RLU

**Q.** And the S/S0 (GM-CSF; [7])?
**A.** 61.358

**Q.** And the “Mean RLU” value (GM-CSF; [8])?
**A.** 580.6 RLU

**Q.** And the S/S0 (GM-CSF; [8])?
**A.** 743.882

**Q.** And the S/S0 (GM-CSF; 2-aminophenol as SSIA, GM-CSF 30000 pg/mL)?
**A.** 2793.081

**Q.** And the S/S0 (biotinylated HRP; Btn-HRP 0 ng/mL vs 0, SSIA 100 μM)?
**A.** 1

**Q.** And the B-HRP0 light intensity (biotinylated HRP; Btn-HRP 0 ng/mL, total HRP 500 ng/mL, SSIA final 100 μM)?
**A.** 65

**Q.** What about the S1/S0 (biotinylated HRP; Btn-HRP 1 ng/mL vs 0, SSIA 100 μM) of the same compound?
**A.** 5.5

**Q.** And the B-HRP1 light intensity (biotinylated HRP; Btn-HRP 1 ng/mL, total HRP 500 ng/mL, SSIA final 100 μM)?
**A.** 356

**Q.** What about the S2/S0 (biotinylated HRP; Btn-HRP 10 ng/mL vs 0, SSIA 100 μM) of the same compound?
**A.** 132.8

**Q.** And the B-HRP10 light intensity (biotinylated HRP; Btn-HRP 10 ng/mL, total HRP 500 ng/mL, SSIA final 100 μM)?
**A.** 8,632

**Q.** And the S3/S0 (biotinylated HRP; Btn-HRP 100 ng/mL vs 0, SSIA 100 μM)?
**A.** 32195.4

**Q.** What about the B-HRP100 light intensity (biotinylated HRP; Btn-HRP 100 ng/mL, total HRP 500 ng/mL, SSIA final 100 μM) of the same compound?
**A.** 2,092,703

**Q.** And the S4/S0 (biotinylated HRP; Btn-HRP 250 ng/mL vs 0, SSIA 100 μM)?
**A.** 61672.1

**Q.** And the B-HRP250 light intensity (biotinylated HRP; Btn-HRP 250 ng/mL, total HRP 500 ng/mL, SSIA final 100 μM)?
**A.** 4,008,689

**Q.** What about the “effect in the model system / utility as SSIA” value (biotinylated HRP; SSIA 100 μM, conclusion in words) of the same compound?
**A.** demonstrating utility as SSIA
